Test results published in patent US20140329679A1, “HERBICIDAL COMPOSITIONS COMPRISING TRIFLUOROME THANESULFONANILIDES AND SAFENERS” (priority 2011, published 2014).

What was measured:
Format in all cases: in vivo
[1] = system: wheat (variety Hereward); experiment: Pre-emergence safening on wheat, seed treated with safener, general crop injury; conditions: 250 g/ha compound of formula (I) sprayed the day after planting, evaluated after 21 days; for Percentage damage, wheat treated with cloquintocet-mexyl: seed treated with cloquintocet-mexyl at 0.25 g per kg seed, mean of two replicates; for Percentage damage, untreated wheat: seed without safener, mean % visual phytotoxicity of two replicates
Protocol: (§1) Maize (variety Claxxon) and wheat (variety Hereward) seeds were treated with a herbicide safener at a rate of 0.2 g safener per kg seed (maize) and 0.25 g safener per kg seed (wheat) prior to sowing. Treated and untreated seeds were sown into standard soil in troughs. The safeners used were N-(2-methoxybenzoyl)-4-Rmethylaminocarbonyl)aminoThenzenesulfonamide (safener A in Table 2) and cloquintocet-mexyl.
(§2) The day after planting the troughs were sprayed with an aqueous spray solution prepared by dissolving the technical active ingredient in an organic solvent and diluting with deionised water to give a final dose of 250 g/ha of a compound of formula (I).
(§3) The spray solution was applied with a cabinet tracksprayer with a flat fan nozzle (Teejet 11002VS) and an application volume of 200 L/ha (at 2 bar).
(§4) The test plants were then grown on in a glasshouse under controlled conditions (at 24/18° C. day/night; 16 hours light; 65% humidity) and watered twice a day. After 21 days the test was evaluated for general crop injury (100% equals total damage to plant; 0% equals no damage to plant).
(§5) Results are shown below in Table 2 as the mean % visual phytotoxicity of two replicates.

[2] = system: Maize (variety Claxxon); experiment: Pre-emergence safening on corn, seed treated with safener, general crop injury; conditions: 250 g/ha compound of formula (I) sprayed the day after planting, evaluated after 21 days; for Percentage damage, corn treated with safener A: seed treated with safener A at 0.2 g per kg seed, mean of two replicates; for Percentage damage, untreated corn: seed without safener, mean % visual phytotoxicity of two replicates
Protocol: as §1, §2, §3, §4, §5

[3] = system: soya (variety Nikko); experiment: Post-emergence crop safening on soya, general crop injury; conditions: compound of formula (I) alone at 200 g/ha, post-emergence spray at 2-3 leaf stage, evaluated after 21 days; 100% = total damage, 0% = no damage; single replicate
Protocol: Maize (variety Garland) and soya (variety Nikko) seeds were sown into standard soil in pots and cultivated under controlled conditions in a glasshouse (at 24/18° C. day/night; 16 hours light; 65% humidity). […] All the compounds used for the spray solution were present as technical material and the safeners were either an EC, SC or WP formulation respectively or technical material. In addition a non-ionic surfactant (Tween 20) was added to form a 0.25% v/v solution. The spray solution was applied with a cabinet tracksprayer with a flat fan nozzle (Teejet 11002VS) and an application volume of 200 L/ha (at 2 bar). The test plants were then grown on in a glasshouse under controlled conditions (at 24/18° C. day/night; 16 hours light; 65% humidity) and watered twice a day. […] Results are shown below in Table 3 as the mean % visual phytotoxicity of two replicates and in Table 4 as the mean % visual phytotoxicity of a single replicate.

[4] = system: Maize (variety Garland); experiment: Post-emergence crop safening on maize, general crop injury; conditions: post-emergence spray at 2-3 leaves; 500 g/ha Compound 41 alone or with 100 g/ha safener; 0.25% v/v Tween 20; evaluated after 21 days; mean of two replicates
Protocol: Maize (variety Garland) and soya (variety Nikko) seeds were sown into standard soil in pots and cultivated under controlled conditions in a glasshouse (at 24/18° C. day/night; 16 hours light; 65% humidity).
When the plants were at the vegetative stage of 2-3 leaves they were sprayed with an aqueous spray solution containing a compound of formula (I) alone and in combination with a number of different herbicide safeners. All the compounds used for the spray solution were present as technical material and the safeners were either an EC, SC or WP formulation respectively or technical material. In addition a non-ionic surfactant (Tween 20) was added to form a 0.25% v/v solution.
as §3, §4
Results are shown below in Table 3 as the mean % visual phytotoxicity of two replicates and in Table 4 as the mean % visual phytotoxicity of a single replicate.

Row | Structure (SMILES) | Percentage damage, wheat treated with cloquintocet-mexyl [1] [%] | Percentage damage, untreated wheat [1] [%] | Percentage damage, corn treated with safener A [2] [%] | Percentage damage, untreated corn [2] [%] | Percentage damage caused to soya (mean % visual phytotoxicity, general crop injury) [3] [%] | Percentage damage caused to maize [4] [%]
1 | O=C1CCCCN1Cc1ccccc1NS(=O)(=O)C(F)(F)F [Compound 5] | 20 | 45 | 25 | 55 |  | 
2 | O=C1COCCN1Cc1ccccc1NS(=O)(=O)C(F)(F)F [Compound 41] | 10 | 35 | 5 | 80 | 30 | 25
3 | CCOC(=O)N(c1ccccc1CN1CCCN(C)S1(=O)=O)S(=O)(=O)C(F)(F)F [Compound 146] | 17.5 | 40 | 0 | 22.5 |  | 
4 | CC(C)COC(=O)N(c1ccccc1CN1CCCN(C)S1(=O)=O)S(=O)(=O)C(F)(F)F [Compound 147] | 5 | 25 | 2.5 | 15 |  | 
5 | CCC(=O)N(c1ccccc1CN1CCCC(SC)C1=O)S(=O)(=O)C(F)(F)F (stereo not shown) [Compound 16] | 15 | 40 | 2.5 | 86 |  | 
6 | CC1(C)CN(Cc2ccccc2NS(=O)(=O)C(F)(F)F)C(=O)O1 [Compound 85] | 15 | 40 | 15 | 65 |  | 
7 | CCC1(C(F)(F)F)CCN(Cc2ccccc2NS(=O)(=O)C(F)(F)F)C(=O)O1 (stereo not shown) [Compound 106] |  |  |  |  | 15 | 
8 | CC1(C)CC(=O)N(Cc2ccccc2NS(=O)(=O)C(F)(F)F)O1 [Compound 20] | 15 | 25 | 0 | 40 |  | 
9 | CN1CCCN(Cc2ccccc2N(C(=O)OCCl)S(=O)(=O)C(F)(F)F)S1(=O)=O [Compound 145] | 5 | 10 | 0 | 20 |  | 
10 | CCOC(=O)N(c1ccccc1CN1CCCCS1(=O)=O)S(=O)(=O)C(F)(F)F [Compound 133] | 5 | 25 | 10 | 20 |  | 
11 | CCCC(=O)N(c1ccccc1CN1CCCCC1=O)S(=O)(=O)C(F)(F)F [Compound 6] | 10 | 30 | 5 | 80 |  | 
12 | CC1(C)CC(=O)N(Cc2ccccc2N(C(=O)OCCl)S(=O)(=O)C(F)(F)F)O1 [Compound 21] | 5 | 20 | 20 | 30 |  | 
13 | O=C1CCCN1Cc1ccccc1NS(=O)(=O)C(F)(F)F [Compound 1] | 5 | 35 | 5 | 30 |  | 
14 | CC1(C(F)(F)F)CCN(Cc2ccccc2N(C(=O)OCCl)S(=O)(=O)C(F)(F)F)C(=O)O1 (stereo not shown) [Compound 102] | 0 | 10 | 0 | 5 |  | 
15 | CCOC(=O)N(c1ccccc1CN1CCC(C)(C(F)(F)F)OC1=O)S(=O)(=O)C(F)(F)F (stereo not shown) [Compound 103] | 0 | 15 | 0 | 10 |  | 
16 | CCOC(=O)N(c1ccccc1CN1CCCCC1=O)S(=O)(=O)C(F)(F)F [Compound 7] | 30 | 50 | 10 | 98 |  | 
17 | O=C1NCCCN1Cc1ccccc1NS(=O)(=O)C(F)(F)F [Compound 53] | 10 | 40 | 5 | 40 |  | 
